Key:
[1] = system: mTORC1-dependent NRDG1 phosphorylation; test: Western blot of NRDG1 phosphorylation (FIG. 5B); assay type: cell-based
Akt phosphorylation = test: Western blot of Akt phosphorylation at serine 473 and threonine 308 (FIG. 7); assay type: cell-based; conditions: serine 473 versus threonine 308
pAKT in PC3 cells = test: Inhibition of PI3K pathway, pAKT Western blot; assay type: cell-based, human; conditions: PC3 model, FIG. 7
Experimental: (§1) Cells comprising one or more mutations in PI3Kα, including but not limited to breast cancer cells (e.g., MDA-MB-361, T47D, SKOV-3), and cells comprising one or more mutations in PTEN including but not limited to prostate cancer cells (e.g., PC3), are typically grown in cell growth media such as DMEM supplemented with fetal bovine serum and/or antibiotics, and grown to confluency. Cells are then treated with various concentrations of test compound for about 2 hours and subsequently lysed in cell lysis buffer. Lysates are subjected to SDS-PAGE followed by Western blot analysis to detect downstream signaling markers, including but not limited to pAKT(S473), pAKT(T308), pS6, and p4E-BP1.

B cell function = test: TNP-Ficoll immunization, antibody production (FIG. 8); assay type: in vivo; conditions: mice immunized with TNP-Ficoll, 7 days, 70 mg/kg GDC0941, 30, 60 or 120 mg/kg Compound A
Experimental: Mice were immunized with TNP-Ficoll and treated with 1) vehicle; 2) 70 mg/kg GDC0941; 3) 30 mg/kg Compound A; 4) 60 mg/kg Compound A; or 5) 120 mg/kg Compound A for 7 days. Antibody production was measured as a percentage of control group that were treated with vehicle.

[2] = system: Akt phosphorylation at serine 473; test: Western blot of Akt phosphorylation at serine 473 (FIG. 12); assay type: cell-based
[3] = system: tumor cells harboring PI3K α mutations; test: Tumor cell proliferation panel (FIG. 13); assay type: cell-based
[4] = system: anti-TNP antibody production; test: TNP-Ficoll T-cell independent B-cell activation assay; assay type: in vivo, mice; conditions: 30, 60 or 120 mg/kg for 7 days, FIG. 8
Experimental: To test the effects of the compounds of the present invention in suppressing T cell independent antibody production, the TNP-Ficoll B-cell activation assay is used as described herein. Compounds of the present invention are dissolved in an appropriate vehicle (e.g. 5% 1-methyl-2-pyrrolidinone, 85% polyethylene glycol 400, 10% Solutor). Compounds are administered orally approximately 1 hr before TNP-Ficoll treatment to 4-10 week old mice. To study the effects of the compounds on B-cell activation, one set of mice are grouped according to the following table:
Four animals in group 1, and eight animals in groups 2 to 7 are euthanized in CO2 2 hours after the last compound administration on day 7. […]
Serum samples are analyzed for anti-TNP antibody titers by ELISA as described herein. […] HRP substrate (200 μl ABTS solution+30% H2O2+10 ml citrate buffer) is added to each well at 100 μl/well, incubated 2-20 minutes in the dark and the amount of anti-TNP IgG3 is determined spectrophotometrically at 405 nm. Similarly, anti-TNP IgM and total anti-TNP Ab are determined using anti-mouse IgM-HRP and anti-mouse Ig-HRP respectively.
Antibody production was measured using ELISA and plotted as a percentage of control group that were treated with vehicle.

PI3K α (p110α/p85α) = target: T1, PI3K α (p110α/p85α) (Homo sapiens, UniProt P42336); test: PI 3-Kinase (human) HTRF assay, PI3K α; assay type: biochemical; conditions: over mTOR and other PI3K isoforms; FIG. 6C
T1 construct: purchased Upstate / Millipore Corporation

PC3 cells = test: Proliferation of tumor cells (CellTiter-Glo); assay type: cell-based, human; conditions: read-out: cell proliferation IC50
Experimental: as §1
Cells were seeded at 5000-10,000 per well in a 96 well flat bottom plate 90 ul growth media. Pre-diluted compound (at 10 times the final concentration) or DMSO (control) was added. The compounds were prepared such that the dose range extended from a final concentration of 30 μM to 14 nM via 3-fold serial dilutions (8 point curve). The final DMSO concentration was 0.3%. Cells were incubated for 72 hours at 37° C. in a CO2 incubator. After 72 hours, proliferation was measured using CellTiter-Glo Luminescent reagent (Promega, PR-G7573). […] Luminescence was read on a PerkinElmer EnVision plate reader. […] Inhibition % was calculated as: 1−(cells+inhibitor)−background signal)/(cells+DMSO)−background signal)×100.

[5] = Steady state blood glucose in nude mice (Example 41); assay type: in vivo, Mus musculus; conditions: mean AUC after the last dose (Day 28)
Experimental: Blood glucose levels were measured via a tail knick using Abbott's “Freestyle Lite” Handheld Blood Glucose Monitor (Abbott Laboratories) at 15, 30, 60, 90, 120, and 1440 minutes after the last dose (Day 28).

marginal zone B cells = test: Marginal zone B cells in mouse spleen (FACS); assay type: in vivo; conditions: 60 mg/kg, spleens harvested 2 hrs after the last dose, FIG. 9
Experimental: The effect of the compounds on the localization/viability of marginal zone B cells in the spleen is also evaluated at the conclusion of treatment.
Spleens were harvested 2 hrs after the last dose, processed and stained with appropriate antibodies (marginal zone B cell: B220+;CD23−;CD21hi) and analyzed for staining on GUAVA EasyCyte FACS machine using Guava Cytosoft 5.2 software.

T1 sequence (P42336 whole entry, canonical isoform): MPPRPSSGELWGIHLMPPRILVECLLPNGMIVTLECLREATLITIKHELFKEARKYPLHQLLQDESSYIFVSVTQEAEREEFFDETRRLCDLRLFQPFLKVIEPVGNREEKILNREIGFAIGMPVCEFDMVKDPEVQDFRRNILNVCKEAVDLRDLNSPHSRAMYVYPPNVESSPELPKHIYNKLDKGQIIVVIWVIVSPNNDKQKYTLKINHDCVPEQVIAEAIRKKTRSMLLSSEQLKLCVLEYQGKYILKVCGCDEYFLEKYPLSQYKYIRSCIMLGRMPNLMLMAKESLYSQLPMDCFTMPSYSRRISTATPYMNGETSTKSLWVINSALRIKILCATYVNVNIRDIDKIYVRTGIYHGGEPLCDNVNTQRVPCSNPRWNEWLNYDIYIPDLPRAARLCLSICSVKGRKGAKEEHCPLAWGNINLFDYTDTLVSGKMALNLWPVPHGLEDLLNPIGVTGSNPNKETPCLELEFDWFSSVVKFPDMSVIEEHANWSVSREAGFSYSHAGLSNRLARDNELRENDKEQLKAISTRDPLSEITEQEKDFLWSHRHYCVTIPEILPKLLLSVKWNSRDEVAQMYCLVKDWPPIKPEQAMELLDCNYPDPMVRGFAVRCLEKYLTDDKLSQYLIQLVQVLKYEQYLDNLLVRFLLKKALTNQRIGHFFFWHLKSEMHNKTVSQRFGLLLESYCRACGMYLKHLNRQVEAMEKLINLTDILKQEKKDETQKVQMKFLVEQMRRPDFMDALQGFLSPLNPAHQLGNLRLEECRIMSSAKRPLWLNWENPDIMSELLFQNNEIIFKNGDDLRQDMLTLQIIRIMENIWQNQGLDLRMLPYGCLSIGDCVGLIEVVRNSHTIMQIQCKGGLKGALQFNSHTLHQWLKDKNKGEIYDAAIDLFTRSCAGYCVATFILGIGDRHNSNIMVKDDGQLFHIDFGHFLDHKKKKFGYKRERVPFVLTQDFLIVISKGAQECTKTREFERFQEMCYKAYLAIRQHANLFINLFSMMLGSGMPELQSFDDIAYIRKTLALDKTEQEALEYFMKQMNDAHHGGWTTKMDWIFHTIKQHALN
T1 sequence (P27986 whole entry partner, canonical isoform): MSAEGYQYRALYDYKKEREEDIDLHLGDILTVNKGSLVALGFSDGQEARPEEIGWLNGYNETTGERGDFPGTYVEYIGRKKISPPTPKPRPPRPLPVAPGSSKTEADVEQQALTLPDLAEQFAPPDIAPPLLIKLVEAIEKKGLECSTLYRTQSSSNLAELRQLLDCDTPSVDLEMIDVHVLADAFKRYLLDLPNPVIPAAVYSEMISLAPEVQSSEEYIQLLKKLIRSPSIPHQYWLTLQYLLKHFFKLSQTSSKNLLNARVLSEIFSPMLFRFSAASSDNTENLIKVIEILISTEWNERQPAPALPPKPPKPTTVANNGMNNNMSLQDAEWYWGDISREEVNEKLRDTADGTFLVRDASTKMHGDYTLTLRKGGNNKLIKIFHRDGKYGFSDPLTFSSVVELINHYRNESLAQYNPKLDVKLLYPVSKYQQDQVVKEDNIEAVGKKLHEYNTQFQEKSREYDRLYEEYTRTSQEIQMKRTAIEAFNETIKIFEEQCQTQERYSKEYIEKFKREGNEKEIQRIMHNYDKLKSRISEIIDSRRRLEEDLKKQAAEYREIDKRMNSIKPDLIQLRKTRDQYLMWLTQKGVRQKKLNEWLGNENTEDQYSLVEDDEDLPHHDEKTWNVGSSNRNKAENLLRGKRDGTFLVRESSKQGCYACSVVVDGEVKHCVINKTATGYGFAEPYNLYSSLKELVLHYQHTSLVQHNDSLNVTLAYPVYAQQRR

Q: For CC(C)n1nc(-c2ccc3oc(N)nc3c2)c2c(N)ncnc21 [Compound B], which “sensitivity of mTORC1-dependent NRDG1 phosphorylation” value [1] is on record?
A: sensitivity

Q: And the “inhibition of Akt phosphorylation” value (Akt phosphorylation)?
A: differential inhibition of Akt phosphorylation at serine 473 over threonine 308

Q: And the “inhibition of Akt phosphorylation, serine 473 vs threonine 308” value (pAKT in PC3 cells)?
A: differential inhibition of Akt phosphorylation at serine 473 over threonine 308

Q: Which “B cell function in vivo (antibody production as percentage of vehicle control)” value (B cell function) does the source give for Nc1nc2cc(-c3ccc4ncc(C(=O)N5CCOCC5)n4c3)ccc2o1 [Compound A] here?
A: not

Q: And the “Akt phosphorylation at serine 473” value ([2]; PTEN-mutant cell line, FIG. 12B)?
A: reduced inhibition of Akt phosphorylation at serine 473

Q: What about the “Akt phosphorylation at serine 473” value ([2]; western blot, FIG. 12A) of the same compound?
A: inhibition of Akt phosphorylation at serine 473

Q: What about the “proliferation of tumor cells” value [3] of the same compound?
A: preferentially inhibits proliferation of tumor cells harboring PI3K α mutations

Q: And the “B cell function in vivo (antibody production, ELISA)” value [4]?
A: not

Q: And the “specificity in inhibiting PI3K α” value (PI3K α (p110α/p85α))?
A: specificity of Compound A in inhibiting PI3K α over mTOR and other PI3K isoforms

Q: And the IC50 (PC3 cells)?
A: > 10 µM

Q: What about the “Blood Glucose Fold Over Vehicle Control” value ([5]; 60 mg/kg QD) of the same compound?
A: 0.97 fold

Q: And the “Blood Glucose Fold Over Vehicle Control” value ([5]; 70 mg/kg QD 3on/4off)?
A: 1.02 fold

Q: What about the “Blood Glucose Fold Over Vehicle Control” value ([5]; 140 mg/kg QD 3on/4off) of the same compound?
A: 1.26 fold

Q: What about the “Blood Glucose Fold Over Vehicle Control” value ([5]; 210 mg/kg QW) of the same compound?
A: 1.16 fold

Q: And the “localization/viability of marginal zone B cells” value (marginal zone B cells)?
A: does not affect

Source: patent US20150087627A1, “COMBINATION OF KINASE INHIBITORS AND USES THEREOF” (Intellikine LLC, priority 2011, published 2015)
